From US9469650B2, “Melampomagnolide B derivatives” (BOARD OF TRUSTEES OF THE UNIVERSITY OF ARKANSAS, priority 2013, dated 2016)

Assays:
[1] = system: T-47D
[2] = system: ACHN; assay: panel of 60 human tumor cell lines, growth inhibition (Renal Cancer)
[3] = system: SN12C; assay: as above
[4] = system: NCI-H226; assay: panel of 60 human tumor cell lines, growth inhibition (Non-Small Cell Lung Cancer); settings: NCI-H226
[5] = system: SK-MEL-5; assay: panel of 60 human tumor cell lines, growth inhibition (Melanoma); settings: 8K-MEL-5
[6] = system: CAKI-1
[7] = system: M14; assay: panel of 60 human tumor cell lines, growth inhibition (Melanoma); settings: M14
[8] = system: NCI-H460; assay: panel of 60 human tumor cell lines, growth inhibition (Non-Small Cell Lung Cancer); settings: NCI-H460
[9] = system: HOP-62; assay: as above; settings: HOP-62
[10] = system: HCC-2998; assay: panel of 60 human tumor cell lines, growth inhibition (Colon Cancer); settings: HCC-2998
[11] = system: U251; assay: panel of 60 human tumor cell lines, growth inhibition (CNS Cancer); settings: U251
[12] = system: MDA-MB-231/ATCC; assay: panel of 60 human tumor cell lines, growth inhibition (Breast Cancer); settings: MDA-MB-231/ATCC
[13] = system: LOX IMVI; assay: panel of 60 human tumor cell lines, growth inhibition (Melanoma)
[14] = system: 786-0; assay: panel of 60 human tumor cell lines, growth inhibition (Renal Cancer); settings: 786-0
[15] = system: MCF7; assay: panel of 60 human tumor cell lines, growth inhibition (Breast Cancer); settings: MCF7
[16] = system: OVCAR-8; assay: panel of 60 human tumor cell lines, growth inhibition (Ovarian Cancer); settings: OVCAR-8
[17] = system: CCRF-CEM; assay: panel of 60 human tumor cell lines, growth inhibition (Leukemia)
[18] = system: SR; assay: as above
[19] = system: MDA-MB-435; assay: panel of 60 human tumor cell lines, growth inhibition (Melanoma); settings: MDA-MB-435
[20] = system: UO-31; assay: panel of 60 human tumor cell lines, growth inhibition (Renal Cancer); settings: UO-31
[21] = system: SK-OV-3; assay: panel of 60 human tumor cell lines, growth inhibition (Ovarian Cancer); settings: SK-OV-3

## C=C1C(=O)O[C@H]2[C@H]1CC/C(COC(=O)NCCO)=C\CC[C@@]1(C)O[C@@H]21 [JVM 2-50]
[1]
  CC50: 87.4 µM
[2]; Log10 Concentration −4.0
  Percent Growth: 84%
[2]; Log10 Concentration −5.0
  Percent Growth: 43%
[2]; Log10 Concentration −6.0
  Percent Growth: 99%
[2]; Log10 Concentration −7.0
  Percent Growth: 101%
[2]; Log10 Concentration −8.0
  Percent Growth: 96%
[2]; NCI five dose
  GI50: 7.44 µM
  TGI: 2.52E−5
[3]; Log10 Concentration −4.0
  Percent Growth: −12%
[3]; Log10 Concentration −5.0
  Percent Growth: 73%
[3]; Log10 Concentration −6.0
  Percent Growth: 31%
[3]; Log10 Concentration −7.0
  Percent Growth: 91%
[3]; Log10 Concentration −8.0
  Percent Growth: 94%
[3]; NCI five dose
  GI50: 18.6 µM
  TGI: 7.22E−5
[4]; Log10 Concentration −4.0
  Percent Growth: −37%
[4]; Log10 Concentration −5.0
  Percent Growth: 67%
[4]; Log10 Concentration −6.0
  Percent Growth: 91%
[4]; Log10 Concentration −7.0
  Percent Growth: 96%
[4]; Log10 Concentration −8.0
  Percent Growth: 93%
[4]; NCI five dose
  GI50: 14.6 µM
  TGI: 4.43E−5
[5]; Log10 Concentration −4.0
  Percent Growth: −34%
[5]; Log10 Concentration −5.0
  Percent Growth: 84%
[5]; Log10 Concentration −6.0
  Percent Growth: 100%
[5]; Log10 Concentration −7.0
  Percent Growth: 100%
[5]; Log10 Concentration −8.0
  Percent Growth: 102%
[5]; NCI five dose
  GI50: 19.5 µM
  TGI: 5.15E−5
[6]
  CC50: 73.8 µM
[7]; Log10 Concentration −4.0
  Percent Growth: −57%
[7]; Log10 Concentration −5.0
  Percent Growth: 56%
[7]; Log10 Concentration −6.0
  Percent Growth: 92%
[7]; Log10 Concentration −7.0
  Percent Growth: 97%
[7]; Log10 Concentration −8.0
  Percent Growth: 91%
[7]; NCI five dose
  GI50: 11.2 µM
  TGI: 3.11E−5
[8]; Log10 Concentration −4.0
  Percent Growth: 8%
[8]; Log10 Concentration −5.0
  Percent Growth: 98%
[8]; Log10 Concentration −6.0
  Percent Growth: 98%
[8]; Log10 Concentration −7.0
  Percent Growth: 100%
[8]; Log10 Concentration −8.0
  Percent Growth: 100%
[8]; NCI five dose
  GI50: 34 µM
  TGI: >1.00E−4
[9]; Log10 Concentration −4.0
  Percent Growth: 9%
[9]; Log10 Concentration −5.0
  Percent Growth: 88%
[9]; Log10 Concentration −6.0
  Percent Growth: 92%
[9]; Log10 Concentration −7.0
  Percent Growth: 90%
[9]; Log10 Concentration −8.0
  Percent Growth: 88%
[9]; NCI five dose
  GI50: 30.4 µM
  TGI: >1.00E−4
[10]; Log10 Concentration −4.0
  Percent Growth: −70%
[10]; Log10 Concentration −5.0
  Percent Growth: 105%
[10]; Log10 Concentration −6.0
  Percent Growth: 136%
[10]; Log10 Concentration −7.0
  Percent Growth: 106%
[10]; Log10 Concentration −8.0
  Percent Growth: 98%
[10]; NCI five dose
  GI50: 20.6 µM
  TGI: 3.99E−5
[11]; Log10 Concentration −4.0
  Percent Growth: −26%
[11]; Log10 Concentration −5.0
  Percent Growth: 94%
[11]; Log10 Concentration −6.0
  Percent Growth: 91%
[11]; Log10 Concentration −7.0
  Percent Growth: 95%
[11]; Log10 Concentration −8.0
  Percent Growth: 97%
[11]; NCI five dose
  GI50: 23.3 µM
  TGI: 6.08E−5
[12]; Log10 Concentration −4.0
  Percent Growth: −66%
[12]; Log10 Concentration −5.0
  Percent Growth: 63%
[12]; Log10 Concentration −6.0
  Percent Growth: 99%
[12]; Log10 Concentration −7.0
  Percent Growth: 91%
[12]; Log10 Concentration −8.0
  Percent Growth: 100%
[12]; NCI five dose
  GI50: 12.7 µM
  TGI: 1.10E−5
[13]; Log10 Concentration −4.0
  Percent Growth: −88%
[13]; Log10 Concentration −5.0
  Percent Growth: 67%
[13]; Log10 Concentration −6.0
  Percent Growth: 98%
[13]; Log10 Concentration −7.0
  Percent Growth: 102%
[13]; Log10 Concentration −8.0
  Percent Growth: 100%
[13]; NCI five dose
  GI50: 12.9 µM
  TGI: 2.72E−5
[14]; Log10 Concentration −4.0
  Percent Growth: −74%
[14]; Log10 Concentration −5.0
  Percent Growth: 59%
[14]; Log10 Concentration −6.0
  Percent Growth: 97%
[14]; Log10 Concentration −7.0
  Percent Growth: 97%
[14]; Log10 Concentration −8.0
  Percent Growth: 91%
[14]; NCI five dose
  GI50: 11.7 µM
  TGI: 2.78E−5
[15]; Log10 Concentration −4.0
  Percent Growth: −59%
[15]; Log10 Concentration −5.0
  Percent Growth: 16%
[15]; Log10 Concentration −6.0
  Percent Growth: 84%
[15]; Log10 Concentration −7.0
  Percent Growth: 89%
[15]; Log10 Concentration −8.0
  Percent Growth: 87%
[15]; NCI five dose
  GI50: 3.16 µM
  TGI: 1.61E−5
[16]; Log10 Concentration −4.0
  Percent Growth: −25%
[16]; Log10 Concentration −5.0
  Percent Growth: 62%
[16]; Log10 Concentration −6.0
  Percent Growth: 97%
[16]; Log10 Concentration −7.0
  Percent Growth: 96%
[16]; Log10 Concentration −8.0
  Percent Growth: 98%
[16]; NCI five dose
  GI50: 13.7 µM
  TGI: 5.15E−5
[17]; Log10 Concentration −4.0
  Percent Growth: −44%
[17]; Log10 Concentration −5.0
  Percent Growth: 1%
[17]; Log10 Concentration −6.0
  Percent Growth: 83%
[17]; Log10 Concentration −7.0
  Percent Growth: 102%
[17]; Log10 Concentration −8.0
  Percent Growth: 98%
[17]; NCI five dose
  GI50: 2.52 µM
  TGI: 1.03E−5
[18]; Log10 Concentration −4.0
  Percent Growth: −30%
[18]; Log10 Concentration −5.0
  Percent Growth: 18%
[18]; Log10 Concentration −6.0
  Percent Growth: 91%
[18]; Log10 Concentration −7.0
  Percent Growth: 100%
[18]; Log10 Concentration −8.0
  Percent Growth: 100%
[18]; NCI five dose
  GI50: 3.67 µM
[19]; Log10 Concentration −4.0
  Percent Growth: −84%
[19]; Log10 Concentration −5.0
  Percent Growth: 40%
[19]; Log10 Concentration −6.0
  Percent Growth: 91%
[19]; Log10 Concentration −7.0
  Percent Growth: 96%
[19]; Log10 Concentration −8.0
  Percent Growth: 91%
[19]; NCI five dose
  GI50: 6.37 µM
  TGI: 2.10E−5
[20]; Log10 Concentration −4.0
  Percent Growth: −65%
[20]; Log10 Concentration −5.0
  Percent Growth: 67%
[20]; Log10 Concentration −6.0
  Percent Growth: 96%
[20]; Log10 Concentration −7.0
  Percent Growth: 99%
[20]; Log10 Concentration −8.0
  Percent Growth: 95%
[20]; NCI five dose
  GI50: 13.5 µM
  TGI: 3.23E−5
[21]; Log10 Concentration −4.0
  Percent Growth: 23%
[21]; Log10 Concentration −5.0
  Percent Growth: 106%
[21]; Log10 Concentration −6.0
  Percent Growth: 103%
[21]; Log10 Concentration −7.0
  Percent Growth: 103%
[21]; Log10 Concentration −8.0
  Percent Growth: 92%
[21]; NCI five dose
  GI50: 47 µM
  TGI: >1.00E−4
